What was measured:
[1] = target: Coagulation factor X (Homo sapiens) (UniProt P00742); test: Binding ability to coagulation factor Xa, expressed as apparent association constant
Homo sapiens = organism: Homo sapiens; test: Concentration required to double the time of clot formation in reconstituted human plasma, using prothrombin time assay; assay type: functional, organism-based

Chain of Coagulation factor X (Homo sapiens) (P00742 41-179 limits assumed): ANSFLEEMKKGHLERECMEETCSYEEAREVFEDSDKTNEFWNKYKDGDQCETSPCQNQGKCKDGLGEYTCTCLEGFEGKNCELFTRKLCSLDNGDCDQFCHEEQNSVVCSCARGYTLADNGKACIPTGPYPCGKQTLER
Chain of Coagulation factor X (Homo sapiens) (P00742 235-488 limits assumed): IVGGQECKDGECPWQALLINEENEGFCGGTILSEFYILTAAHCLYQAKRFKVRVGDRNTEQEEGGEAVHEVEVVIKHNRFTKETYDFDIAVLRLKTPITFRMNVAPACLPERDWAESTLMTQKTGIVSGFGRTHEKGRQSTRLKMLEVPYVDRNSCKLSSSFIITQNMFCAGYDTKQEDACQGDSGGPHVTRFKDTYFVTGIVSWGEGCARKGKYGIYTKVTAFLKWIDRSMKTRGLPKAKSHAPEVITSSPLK

| Structure (SMILES) | K ass [1] | Concentration (Homo sapiens) |
| --- | --- | --- |
| COc1ccc(C(=O)NC(C(=O)NCC2CCN(C(C)C)CC2)c2ccccc2Br)cc1 (stereo not drawn) | 4.6e+06 l M-1 |  |
| COc1ccc(C(=O)NC(C(=O)NCC2CCN(C(C)C)CC2)c2cccs2)cc1 (stereo not drawn) | 1.1e+06 l M-1 |  |
| COc1ccc(C(=O)NC(C(=O)NCC2CCN(C(C)C)CC2)c2ccccc2C(F)(F)F)cc1 (stereo not drawn) | 3.1e+06 l M-1 |  |
| COc1ccc(C(=O)NC(C(=O)NCC2CCN(C(C)C)CC2)c2ccccc2OCc2ccccc2)cc1 (stereo not drawn) | 2.6e+06 l M-1 |  |
| COc1ccc(C(=O)NC(C(=O)NCC2CCN(C(C)C)CC2)c2ccco2)cc1 (stereo not drawn) | 360000 l M-1 |  |
| COc1ccc(C(=O)NC(C(=O)NCC2CCN(C(C)C)CC2)c2ncc[nH]2)cc1 (stereo not drawn) | 210000 l M-1 |  |
| COc1ccc(C(=O)NC(C(=O)NCC2CCN(C(C)C)CC2)c2ccccc2[N+](=O)[O-])cc1 (stereo not drawn) | 4.2e+06 l M-1 |  |
| COc1ccc(C(=O)NC(C(=O)NCC2CCN(C(C)C)CC2)c2ccccc2SC)cc1 (stereo not drawn) | 2.9e+06 l M-1 |  |
| COc1ccc(C(=O)NC(C(=O)NCC2CCN(C(C)C)CC2)c2ccoc2)cc1 (stereo not drawn) | 200000 l M-1 |  |
| COc1ccc(C(=O)NC(C(=O)NCC2CCN(C(C)C)CC2)c2ccsc2)cc1 (stereo not drawn) | 880000 l M-1 |  |
| COc1ccc(C(=O)NC(C(=O)NCC2CCN(C(C)C)CC2)c2ccccc2SC(C)(C)C)cc1 (stereo not drawn) | 1.7e+06 l M-1 |  |
| COc1ccc(C(=O)NC(C(=O)NCC2CCN(C(C)C)CC2)c2ccccc2N(C)C)cc1 (stereo not drawn) | 1.1e+06 l M-1 |  |
| CCOc1ccccc1C(NC(=O)c1ccc(OC)cc1)C(=O)NCC1CCN(C(C)C)CC1 (stereo not drawn) | 2.8e+06 l M-1 |  |
| COc1ccc(C(=O)NC(C(=O)NCC2CCN(C(C)C)CC2)c2ccccc2OC(F)(F)F)cc1 (stereo not drawn) | 4.1e+06 l M-1 |  |

Second part, led by results:

| K ass [1] | Structure (SMILES) | Concentration (Homo sapiens) |
| --- | --- | --- |
| 4.1e+06 l M-1 | COc1ccc(C(=O)NC(C(=O)NCC2CCN(C(C)C)CC2)c2ccccc2I)cc1 (stereo not drawn) |  |
| 200000 l M-1 | O=C(NC(C(=O)NCC1CCN(C2CCCC2)CC1)c1cnc2ccccc2c1)c1ccc2c(Cl)c[nH]c2c1 (stereo not drawn) |  |
| 2.5e+06 l M-1 | COc1ccc(C(=O)NC(C(=O)NCC2CCN(C(C)C)CC2)c2ccccc2C)cc1 (stereo not drawn) |  |
| 1.3e+06 l M-1 | COc1ccc(C(=O)NC(C(=O)NCC2CCN(C(C)C)CC2)c2ccccc2O)cc1 (stereo not drawn) |  |
| 750000 l M-1 | COc1ccc(C(=O)NC(C(=O)NCC2CCN(C(C)C)CC2)c2ccccc2N)cc1 (stereo not drawn) |  |
| 710000 l M-1 | COc1ccc(C(=O)NC(C(=O)NCC2CCN(C(C)C)CC2)c2ccccc2)cc1 (stereo not drawn) |  |
| 8.2e+08 l M-1 | O=C(N[C@@H](C(=O)NCC1CCN(C2CCCC2)CC1)c1ccccc1)c1ccc2c(Cl)c[nH]c2c1 |  |
| 1.3e+06 l M-1 | COc1ccc(C(=O)NC(C(=O)NCC2CCN(C(C)C)CC2)c2ccnc3ccccc23)cc1 (stereo not drawn) |  |
| 1.9e+06 l M-1 | COc1ccc(C(=O)NC(C(=O)NCC2CCN(C(C)C)CC2)c2ccccc2OC)cc1 (stereo not drawn) |  |
| 5.1e+06 l M-1 | COc1ccc(C(=O)NC(C(=O)NCC2CCN(C(C)C)CC2)c2ccccc2Cl)cc1 (stereo not drawn) |  |
| 1.3e+06 l M-1 | COc1ccc(C(=O)NC(C(=O)NCC2CCN(C(C)C)CC2)c2ccccc2Oc2ccccc2)cc1 (stereo not drawn) |  |
| 2.5e+08 l M-1 | O=C(NC(C(=O)NCC1CCN(C2CCCC2)CC1)c1cccc2ccccc12)c1ccc2c(Cl)c[nH]c2c1 (stereo not drawn) | 3.8 µM |
| 7.9e+07 l M-1 | O=C(NC(C(=O)NCC1CCN(C2CCCC2)CC1)c1ccc2ccccc2c1)c1ccc2c(Cl)c[nH]c2c1 (stereo not drawn) | 4.1 µM |
| 50000 l M-1 | COc1ccc(C(=O)NC(C(=O)NCC2CCN(C(C)C)CC2)c2cnc3ccccc3c2)cc1 (stereo not drawn) |  |
| 3.8e+08 l M-1 | O=C(NC(C(=O)NCC1CCN(C2CCCC2)CC1)c1nccs1)c1ccc2c(Cl)c[nH]c2c1 (stereo not drawn) | 0.79 µM |
| 2e+06 l M-1 | COc1ccc(C(=O)NC(C(=O)NCC2CCN(C(C)C)CC2)c2ccccc2F)cc1 (stereo not drawn) |  |

— ChEMBL document CHEMBL1136093, “A four component coupling strategy for the synthesis of D-phenylglycinamide-derived non-covalent factor Xa inhibitors” (Bioorg Med Chem Lett, 2003)
